We go through five molecules from patent publication US20260176320A1, “MODULATORS OF G-PROTEIN COUPLED RECEPTORS” (priority 2018, published 2026).

In one experiment the target is T1, GIP-R (Homo sapiens, UniProt P48546).
T1 sequence (P48546 22-466): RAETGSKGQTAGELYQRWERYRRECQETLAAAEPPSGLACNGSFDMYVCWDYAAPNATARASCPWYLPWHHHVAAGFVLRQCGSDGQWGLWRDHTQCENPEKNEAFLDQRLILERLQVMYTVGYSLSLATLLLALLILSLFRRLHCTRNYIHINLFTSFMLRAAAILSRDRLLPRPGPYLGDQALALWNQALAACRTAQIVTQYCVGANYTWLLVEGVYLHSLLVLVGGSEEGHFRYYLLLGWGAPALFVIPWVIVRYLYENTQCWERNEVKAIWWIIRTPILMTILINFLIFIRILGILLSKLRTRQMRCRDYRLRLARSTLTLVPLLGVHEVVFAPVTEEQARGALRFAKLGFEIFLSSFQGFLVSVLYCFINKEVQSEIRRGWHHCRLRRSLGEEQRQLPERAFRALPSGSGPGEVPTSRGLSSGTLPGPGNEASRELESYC
Description: HitHunter cAMP assay (GIP-R). It is filed as cell-based. The note with it: cAMP; for Emax: read-out: (Emax) GIP-R. The protocol:
(§1) Suspension cells were harvested and resuspended in 1×HBSS (+10 mM HEPES, 625 μM IBMX, 0.2% BSA) according to the following procedure: 5 μL of 2× cell suspension+1× antibody were added to each well, where the optimal cell density was 10,000 cells per well in a low volume 384-well plate. Agonist serial dilutions in a separate 384 well dilution plate in a 22-point series of 2× dilutions of agonist in DMSO were performed as follows. 80 μL of the highest concentration of Agonist/DMSO was added to well No. 1. 40 μL was removed from well No. 1 and added it to well No. 2, followed by gentle mixing. […] This process was repeated until well No. 22. Additional serial dilutions for additional agonists were set up in a similar manner. 50 nL of each 2× agonist serial dilution was added in duplicate to the designated agonist rows of the assay plate using the Labcyte ECHO. Assay plate was incubated for 30 minutes at room temperature. Following agonist incubation, 5 μL of cAMP Antibody Reagent was added to all wells. […] Plates were spun down briefly. Assay plate was incubated for 1 hour at room temperature in the dark for the immunocompetition reaction to occur. […] Plates were spun down briefly. Assay plate was incubated O/N at room temperature in the dark. Samples were read on Tecan i-control plate reader using luminescence mode with 300 ms integration time. Data analysis was performed using GraphPad Prism.
(Changes in cAMP serve as a functional read-out for many G protein-coupled receptors.)

Another experiment has as its target GLP-1R (Homo sapiens, UniProt P43220). Description: HitHunter cAMP assay (GLP-1R). It is filed as cell-based. The note with it: cAMP; for Emax: read-out: (Emax) GLP-1R. The protocol: as §1

One may read the Emax as the greatest response seen or fitted, relative to the assay's reference.

Where two headings read alike, the source gives them in different places.

Chain of GLP-1R (P43220 24-463): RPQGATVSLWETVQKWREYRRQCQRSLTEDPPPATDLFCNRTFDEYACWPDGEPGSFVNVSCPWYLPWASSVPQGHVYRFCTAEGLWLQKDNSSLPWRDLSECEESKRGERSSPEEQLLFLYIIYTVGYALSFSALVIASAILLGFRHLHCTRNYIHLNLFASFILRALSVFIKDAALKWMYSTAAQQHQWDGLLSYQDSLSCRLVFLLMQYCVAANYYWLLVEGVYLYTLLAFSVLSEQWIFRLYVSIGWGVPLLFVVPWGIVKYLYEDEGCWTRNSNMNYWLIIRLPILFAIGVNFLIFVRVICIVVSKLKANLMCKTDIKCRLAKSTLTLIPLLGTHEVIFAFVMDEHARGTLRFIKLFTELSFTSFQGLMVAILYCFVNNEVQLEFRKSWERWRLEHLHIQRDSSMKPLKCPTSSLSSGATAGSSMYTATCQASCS

In the case of `CC[C@H](C)[C@H](NC(=O)[C@H](CO)NC(=O)[C@H](Cc1ccc(O)cc1)NC(=O)[C@H](CC(=O)O)NC(=O)[C@H](CO)NC(=O)[C@@H](NC(=O)[C@H](Cc1ccccc1)NC(=O)[C@@H](NC(=O)CNC(=O)[C@H](CCC(=O)O)NC(=O)CSCC(=O)NCCN1C(=O)c2cccc([N+](=O)[O-])c2C1=O)[C@@H](C)O)[C@@H](C)O)C(=O)N[C@@H](Cc1ccc(O)cc1)C(=O)N[C@@H](CC(C)C)C(=O)N[C@@H](CC(=O)O)C(=O)N[C@@H](CCCCN)C(=O)N[C@@H](CCC(N)=O)C(=O)N[C@@H](C)C(=O)N[C@@H](C)C(=O)NC(C)(C)C(=O)N[C@@H](CCC(=O)O)C(=O)N[C@@H](Cc1ccccc1)C(=O)N[C@H](C(=O)N[C@@H](CC(N)=O)C(=O)N[C@@H](Cc1c[nH]c2ccccc12)C(=O)N[C@@H](CC(C)C)C(=O)N[C@@H](CC(C)C)C(=O)N[C@@H](C)C(=O)NCC(=O)NCC(=O)N1CCC[C@H]1C(=O)N[C@@H](CO)C(=O)N[C@@H](CO)C(=O)NCC(=O)N[C@@H](C)C(=O)N1CCC[C@H]1C(=O)N1CCC[C@H]1C(=O)N1CCC[C@H]1C(=O)N[C@@H](CO)C(=O)N[C@@H](CCCCN)C(N)=O)C(C)C` [Compound 108], the EC50 on GIP-R (EC50 GIP-R/nM, Table 3) is 10 to 100 nM; on GIP-R (EC50 GIP-R/nM, Table 3A) it was 10 to 100 nM; on GLP-1R (EC50 GLP-1R/nM, Table 3), above 1000 nM; on GLP-1R (EC50 GLP-1R/nM, Table 3A), above 1000 nM. Besides, the Emax at GIP-R (Table 3) and at GIP-R (Table 3A) was 69% in each case. For the same molecule, the Emax at 1 µM was found to be 18% on GLP-1R (read-out: (Emax) GLP-1R at 1 μM, Table 3) and 18% at GLP-1R (read-out: (Emax) GLP-1R at 1 μM, Table 3A).
In the case of `CCCCCCCCCCCCCCCC(=O)N[C@@H](CCC(=O)NCCCC[C@H](NC(=O)[C@H](CO)NC(=O)[C@@H]1CCCN1C(=O)[C@@H]1CCCN1C(=O)[C@@H]1CCCN1C(=O)[C@H](C)NC(=O)CNC(=O)[C@H](CO)NC(=O)[C@H](CO)NC(=O)[C@@H]1CCCN1C(=O)CNC(=O)CNC(=O)[C@H](C)NC(=O)[C@H](CC(C)C)NC(=O)[C@H](CC(C)C)NC(=O)[C@H](Cc1c[nH]c2ccccc12)NC(=O)[C@H](CC(N)=O)NC(=O)[C@@H](NC(=O)[C@H](Cc1ccccc1)NC(=O)[C@H](CCC(=O)O)NC(=O)C(C)(C)NC(=O)[C@H](C)NC(=O)[C@H](C)NC(=O)[C@H](CCC(N)=O)NC(=O)[C@H](CCCCN)NC(=O)[C@H](CC(=O)O)NC(=O)[C@H](CC(C)C)NC(=O)[C@H](Cc1ccc(O)cc1)NC(=O)[C@@H](NC(=O)[C@H](CO)NC(=O)[C@H](Cc1ccc(O)cc1)NC(=O)[C@H](CC(=O)O)NC(=O)[C@H](CO)NC(=O)[C@@H](NC(=O)[C@H](Cc1ccccc1)NC(=O)[C@@H](NC(=O)CNC(=O)[C@H](CCC(=O)O)NC(=O)CSCC(=O)NCCN1C(=O)C[C@H](CC)C1=O)[C@@H](C)O)[C@@H](C)O)[C@@H](C)CC)C(C)C)C(N)=O)C(=O)O` (single isomer, unassigned) [Compound 62], the Emax at GIP-R (Table 3) amounted to 48%; on GIP-R (Table 3A), 48%; at GLP-1R (Table 3) it was 101%; at GLP-1R (Table 3A), 101%.
As for `CCCCCCCCCCCCCCCC(=O)N[C@@H](CCC(=O)NCCCC[C@H](NC(=O)[C@H](CO)NC(=O)[C@@H]1CCCN1C(=O)[C@@H]1CCCN1C(=O)[C@@H]1CCCN1C(=O)[C@H](C)NC(=O)CNC(=O)[C@H](CO)NC(=O)[C@H](CO)NC(=O)[C@@H]1CCCN1C(=O)CNC(=O)CNC(=O)[C@H](C)NC(=O)[C@H](CC(C)C)NC(=O)[C@H](CC(C)C)NC(=O)[C@H](Cc1c[nH]c2ccccc12)NC(=O)[C@H](CC(N)=O)NC(=O)[C@@H](NC(=O)[C@H](Cc1ccccc1)NC(=O)[C@H](CCC(=O)O)NC(=O)C(C)(C)NC(=O)[C@H](C)NC(=O)[C@H](C)NC(=O)[C@H](CCC(N)=O)NC(=O)[C@H](CCCCN)NC(=O)[C@H](CC(=O)O)NC(=O)[C@H](CC(C)C)NC(=O)[C@H](Cc1ccc(O)cc1)NC(=O)[C@@H](NC(=O)[C@H](CO)NC(=O)[C@H](Cc1ccc(O)cc1)NC(=O)[C@H](CC(=O)O)NC(=O)[C@H](CO)NC(=O)[C@@H](NC(=O)[C@H](Cc1ccccc1)NC(=O)[C@@H](NC(=O)CNC(=O)[C@H](CCC(=O)O)NC(=O)CSCC(=O)NCCN1C[C@@H](C)CC1=O)[C@@H](C)O)[C@@H](C)O)[C@@H](C)CC)C(C)C)C(N)=O)C(=O)O` (single isomer, unassigned) [Compound 64], the Emax at GIP-R (Table 3) is 35%; on GIP-R (Table 3A) it was 35%; on GLP-1R (Table 3), 97%; at GLP-1R (Table 3A) it was 97%.
For `CCCCCCCCCCCCCCCC(=O)N[C@@H](CCC(=O)NCCCC[C@H](NC(=O)[C@H](CO)NC(=O)[C@@H]1CCCN1C(=O)[C@@H]1CCCN1C(=O)[C@@H]1CCCN1C(=O)[C@H](C)NC(=O)CNC(=O)[C@H](CO)NC(=O)[C@H](CO)NC(=O)[C@@H]1CCCN1C(=O)CNC(=O)CNC(=O)[C@H](C)NC(=O)[C@H](CC(C)C)NC(=O)[C@H](CC(C)C)NC(=O)[C@H](Cc1c[nH]c2ccccc12)NC(=O)[C@H](CC(N)=O)NC(=O)[C@@H](NC(=O)[C@H](Cc1ccccc1)NC(=O)[C@H](CCC(=O)O)NC(=O)C(C)(C)NC(=O)[C@H](C)NC(=O)[C@H](C)NC(=O)[C@H](CCC(N)=O)NC(=O)[C@H](CCCCN)NC(=O)[C@H](CC(=O)O)NC(=O)[C@H](CC(C)C)NC(=O)[C@H](Cc1ccc(O)cc1)NC(=O)[C@@H](NC(=O)[C@H](CO)NC(=O)[C@H](Cc1ccc(O)cc1)NC(=O)[C@H](CC(=O)O)NC(=O)[C@H](CO)NC(=O)[C@@H](NC(=O)[C@H](Cc1ccccc1)NC(=O)[C@@H](NC(=O)CNC(=O)[C@H](CCc1nn[nH]n1)NC(=O)CSCC(=O)NCCN1CCCCC1=O)[C@@H](C)O)[C@@H](C)O)[C@@H](C)CC)C(C)C)C(N)=O)C(=O)O` [Compound 221], the Emax amounted to 68% at GIP-R (Table 3A) and 95% on GLP-1R (Table 3A). Also, the EC50 on GIP-R (Table 3A, read-out: EC50 GIP-R/nM) lay within 1 to 10 nM; on GLP-1R (Table 3A, read-out: EC50 GLP-1R/nM) it was 1 to 10 nM.
Consider `CC[C@H](C)[C@H](NC(=O)[C@H](CO)NC(=O)[C@H](Cc1ccc(O)cc1)NC(=O)[C@H](CC(=O)O)NC(=O)[C@H](CO)NC(=O)[C@@H](NC(=O)[C@H](Cc1ccccc1)NC(=O)[C@@H](NC(=O)CNC(=O)[C@H](CCC(=O)O)NC(=O)CCCCCCCCN1C(=O)CSC1=O)[C@@H](C)O)[C@@H](C)O)C(=O)N[C@@H](Cc1ccc(O)cc1)C(=O)N[C@@H](CC(C)C)C(=O)N[C@@H](CC(=O)O)C(=O)N[C@@H](CCCCN)C(=O)N[C@@H](CCC(N)=O)C(=O)N[C@@H](C)C(=O)N[C@@H](C)C(=O)NC(C)(C)C(=O)N[C@@H](CCC(=O)O)C(=O)N[C@@H](Cc1ccccc1)C(=O)N[C@H](C(=O)N[C@@H](CC(N)=O)C(=O)N[C@@H](Cc1c[nH]c2ccccc12)C(=O)N[C@@H](CC(C)C)C(=O)N[C@@H](CC(C)C)C(=O)N[C@@H](C)C(=O)NCC(=O)NCC(=O)N1CCC[C@H]1C(=O)N[C@@H](CO)C(=O)N[C@@H](CO)C(=O)NCC(=O)N[C@@H](C)C(=O)N1CCC[C@H]1C(=O)N1CCC[C@H]1C(=O)N1CCC[C@H]1C(=O)N[C@@H](CO)C(=O)N[C@@H](CCCCN)C(N)=O)C(C)C` [Compound 174], for which the EC50 on GIP-R (EC50 GIP-R/nM, Table 3) is 100 to 1000 nM; on GIP-R (EC50 GIP-R/nM, Table 3A), 100 to 1000 nM; on GLP-1R (read-out: EC50 GLP-1R/nM, Table 3), 10 to 1000 nM; on GLP-1R (read-out: EC50 GLP-1R/nM, Table 3A), 10 to 1000 nM. Moreover, the Emax fell in the range of 30 to 66% at GIP-R (Table 3), 30 to 66% on GIP-R (Table 3A), 17 to 73% at GLP-1R (Table 3) and 17 to 73% on GLP-1R (Table 3A).
